In patent US7297700B2, “Bicycloheteroaryl compounds as P2X7 modulators and uses thereof” (Renovis, Inc., priority 2005, dated 2007) one finds inhibition and IL-1β % inhibition data, which are given here for 49 molecules.

The test system of one experiment is IL-1β release from THP-1 cells. The experiment is described as follows: IL-1β Release Assay (Alternate Method), THP-1 cells. It counts as cell-based, human. The settings on record: Homo sapiens, THP-1, read-out: IL-1β % inhibition. The gist of the method:
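IL-1β release, measured by ELISA, follows 45 min BzATP (250 uM final) stimulation of THP-1 cells given 30 min compound pretreatment. Cells were first primed 16 h with LPS and IFN-γ (100 ng/mL each), then 2 h with fresh LPS; inhibition expressed in percent after background correction.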
For orientation: inhibition means the relative decrease from the control value, in per cent. Take `O=C(CC12CC3CC(CC(C3)C1)C2)Nc1ncnc2c1CCN(CCCO)C2` [Compound 19, 2-adamantan-1-yl-N-[7-(3-hydroxy-propyl)-5,6,7,8-tetrahydro-pyrido[3,4-d]pyrimidin-4-yl]-acetamide]: the inhibition at 0.3 µM was 0 to 25%.

Staying with this experiment, now noted: at 0.3 μM; THP-1 cells.
For the molecule `O=C(CC12CC3CC(CC(C3)C1)C2)Nc1ncnc2c1CCN(C(=O)Cc1ccc(Cl)cc1)C2` [Compound 265], the IL-1β % inhibition entry is “++ (compound exhibited 25-50% inhibition at 0.3 μM)”. Take `Cc1c(C(=O)N2CCc3c(ncnc3NC(=O)CC34CC5CC(CC(C5)C3)C4)C2)cnn1-c1ccccc1` [Compound 288]: the IL-1β % inhibition result is “+ (compound exhibited 0-25% inhibition at 0.3 μM)”. For the molecule `CC(=O)N1CCC(C(=O)N2CCc3c(ncnc3NC(=O)CC34CC5CC(CC(C5)C3)C4)C2)CC1` [Compound 295], the IL-1β % inhibition result is reported as “+ (compound exhibited 0-25% inhibition at 0.3 μM)”.

For `O=C(CC12CC3CC(CC(C3)C1)C2)Nc1ncnc2c1CCN(Cc1ccccn1)C2` [Compound 61], the IL-1β % inhibition entry is given as “+ (compound exhibited 0-25% inhibition at 0.3 μM)”. With `N#Cc1cc(CN2CCc3c(ncnc3NC(=O)CC34CC5CC(CC(C5)C3)C4)C2)ccc1F` [Compound 84], the IL-1β % inhibition entry is “+ (compound exhibited 0-25% inhibition at 0.3 μM)”.

Take `O=C(CC12CC3CC(CC(C3)C1)C2)Nc1ncnc2c1CCN(S(=O)(=O)c1ccc(OC(F)F)cc1)C2` [Compound 190]: the IL-1β % inhibition entry is “+++ (compound exhibited 50-75% inhibition at 0.3 μM)”. Regarding `CC(C)(C(=O)Nc1ncnc2c1CCN(Cc1ccc3cc[nH]c3c1)C2)C12CC3CC(CC(C3)C1)C2` [Compound 351], the IL-1β % inhibition entry is “+ (compound exhibited 0-25% inhibition at 0.3 μM)”.

For `CC(C)(C)c1ccc(CN2CCc3c(ncnc3NC(=O)CC34CC5CC(CC(C5)C3)C4)C2)cc1` [Compound 71], the IL-1β % inhibition entry was “+ (compound exhibited 0-25% inhibition at 0.3 μM)”. For the molecule `O=C(CC12CC3CC(CC(C3)C1)C2)Nc1ncnc2c1CCN(Cc1cc(F)cc(C(F)(F)F)c1)C2` [Compound 108], the IL-1β % inhibition entry is “+ (compound exhibited 0-25% inhibition at 0.3 μM)”.

Regarding `O=C(CC12CC3CC(CC(C3)C1)C2)Nc1ncnc2c1CCN(Cc1ccc(Cl)cc1F)C2` [Compound 328], the IL-1β % inhibition result is reported as “+++ (compound exhibited 50-75% inhibition at 0.3 μM)”.

With `O=C(CC12CC3CC(CC(C3)C1)C2)Nc1ncnc2c1CCN(Cc1ccc(F)cc1F)C2` [Compound 47], the IL-1β % inhibition entry was “++++ (compound exhibited 75% or greater inhibition at 0.3 μM)”. Take `COCCC(=O)N1CCc2c(ncnc2NC(=O)CC23CC4CC(CC(C4)C2)C3)C1` [Compound 307]: the IL-1β % inhibition entry is given as “++ (compound exhibited 25-50% inhibition at 0.3 μM)”.

As to `O=C(O)COc1ccccc1CN1CCc2c(ncnc2NC(=O)CC23CC4CC(CC(C4)C2)C3)C1` [Compound 141], the IL-1β % inhibition result was “+ (compound exhibited 0-25% inhibition at 0.3 μM)”. In the case of `COc1ccccc1CN1CCc2c(ncnc2NC(=O)CC23CC4CC(CC(C4)C2)C3)C1` [Compound 29], the IL-1β % inhibition entry was “+ (compound exhibited 0-25% inhibition at 0.3 μM)”. Consider `COc1ccc(F)cc1CN1CCc2c(ncnc2NC(=O)CC23CC4CC(CC(C4)C2)C3)C1` [Compound 102], for which the IL-1β % inhibition entry is “+ (compound exhibited 0-25% inhibition at 0.3 μM)”. Regarding `O=C(CC12CC3CC(CC(C3)C1)C2)Nc1ncnc2c1CCN(C(=O)c1ccc(OC(F)(F)F)cc1)C2` [Compound 228], the IL-1β % inhibition entry is given as “+ (compound exhibited 0-25% inhibition at 0.3 μM)”. Consider `O=C(CC12CC3CC(CC(C3)C1)C2)Nc1ncnc2c1CCN(Cc1ccc(C(F)(F)F)cc1C(F)(F)F)C2` [Compound 327], for which the IL-1β % inhibition entry is listed as “+ (compound exhibited 0-25% inhibition at 0.3 μM)”. With `O=C(CC12CC3CC(CC(C3)C1)C2)Nc1ncnc2c1CCN(C(=O)c1cccnc1Cl)C2` [Compound 222], the IL-1β % inhibition entry is listed as “+++ (compound exhibited 50-75% inhibition at 0.3 μM)”.

For `O=C(CC12CC3CC(CC(C3)C1)C2)Nc1ncnc2c1CCN(C(=O)Cc1ccccc1)C2` [Compound 225], the IL-1β % inhibition result is listed as “++ (compound exhibited 25-50% inhibition at 0.3 μM)”.

On to `O=C(CC12CC3CC(CC(C3)C1)C2)Nc1ncnc2c1CCN(S(=O)(=O)c1cc(F)ccc1F)C2` [Compound 203], for which the IL-1β % inhibition result is listed as “+ (compound exhibited 0-25% inhibition at 0.3 μM)”. On the same count and under the same terms, under `CC12CC3CC(C)(C1)CC(C(C)(C)C(=O)Nc1ncnc4c1CCN(Cc1ccccc1)C4)(C3)C2` [Compound 343] stands “+ (compound exhibited 0-25% inhibition at 0.3 μM)”; under `O=C(CC12CC3CC(CC(C3)C1)C2)Nc1ncnc2c1CCN(CCc1ccccc1)C2` [Compound 14], “+ (compound exhibited 0-25% inhibition at 0.3 μM)”; under `Cc1noc(C)c1S(=O)(=O)N1CCc2c(ncnc2NC(=O)CC23CC4CC(CC(C4)C2)C3)C1` [Compound 169], “++ (compound exhibited 25-50% inhibition at 0.3 μM)”.

On to `O=C(CC12CC3CC(CC(C3)C1)C2)Nc1ncnc2c1CCN(C(=O)c1ccc3c(c1)CCO3)C2` [Compound 309], for which the IL-1β % inhibition result is recorded as “++++ (compound exhibited 75% or greater inhibition at 0.3 μM)”. For the molecule `O=C(CC12CC3CC(CC(C3)C1)C2)Nc1ncnc2c1CCN(Cc1ccc3[nH]ccc3c1)C2` [Compound 64], the IL-1β % inhibition result is given as “+ (compound exhibited 0-25% inhibition at 0.3 μM)”. Regarding `O=C(CC12CC3CC(CC(C3)C1)C2)Nc1ncnc2c1CCN(Cc1ccccc1F)C2` [Compound 28], the IL-1β % inhibition entry is given as “++++ (compound exhibited 75% or greater inhibition at 0.3 μM)”. On to `O=C(CC12CC3CC(CC(C3)C1)C2)Nc1ncnc2c1CCN(C(=O)c1ccno1)C2` [Compound 296], for which the IL-1β % inhibition entry was “+++ (compound exhibited 50-75% inhibition at 0.3 μM)”. Turning to `O=C(CC12CC3CC(CC(C3)C1)C2)Nc1ncnc2c1CCN(S(=O)(=O)c1c(F)cccc1F)C2` [Compound 206], the IL-1β % inhibition result is “+ (compound exhibited 0-25% inhibition at 0.3 μM)”. As for `O=C(CC12CC3CC(CC(C3)C1)C2)Nc1ncnc2c1CCN(C(=O)c1cnn(-c3ccccc3)c1C(F)(F)F)C2` [Compound 286], the IL-1β % inhibition result is on record as “+++ (compound exhibited 50-75% inhibition at 0.3 μM)”. As to `O=C(CC12CC3CC(CC(C3)C1)C2)Nc1ncnc2c1CCN(C(=O)c1cccc(Cl)c1Cl)C2` [Compound 282], the IL-1β % inhibition result is “++++ (compound exhibited 75% or greater inhibition at 0.3 μM)”. On to `COc1ccc(F)c(CN2CCc3c(ncnc3NC(=O)CC34CC5CC(CC(C5)C3)C4)C2)c1` [Compound 104], for which the IL-1β % inhibition result is given as “+++ (compound exhibited 50-75% inhibition at 0.3 μM)”. With `O=C(CC12CC3CC(CC(C3)C1)C2)Nc1ncnc2c1CCN(S(=O)(=O)c1ccc(Oc3ccccc3)cc1)C2` [Compound 191], the IL-1β % inhibition result is “+ (compound exhibited 0-25% inhibition at 0.3 μM)”.

The experiment is the same for the next values; noted with them: at 0.3 μM; THP-1 cells, BzATP-stimulated.
In the case of `CC(C)(C)c1ccc(CN2CCc3c(ncnc3NC(=O)C34CC5CC(CC(C5)C3)C4)C2)cc1` [Compound 572], the IL-1β % inhibition result is recorded as “++++ (compound exhibited 75% or greater inhibition at 0.3 μM)”. Turning to `O=C(Nc1ncnc2c1CCN(S(=O)(=O)Cc1ccc(F)cc1)C2)C12CC3CC(CC(C3)C1)C2` [Compound 517], the IL-1β % inhibition entry is recorded as “++ (compound exhibited 25-50% inhibition at 0.3 μM)”. `O=C(c1cc(Cl)cc(Cl)c1)N1CCc2c(ncnc2NC(=O)C23CC4CC(CC(C4)C2)C3)C1` [Compound 479]: the IL-1β % inhibition entry is “+ (compound exhibited 0-25% inhibition at 0.3 μM)”. For the molecule `O=C(Nc1ncnc2c1CCN(Cc1ccc(Cl)cc1F)C2)C12CC3CC(CC(C3)C1)C2` [Compound 635], the IL-1β % inhibition result is given as “+ (compound exhibited 0-25% inhibition at 0.3 μM)”.

As for `O=C(Nc1ncnc2c1CCN(Cc1ccc(OCc3ccc(F)cc3)cc1)C2)C12CC3CC(CC(C3)C1)C2` [Compound 622], the IL-1β % inhibition entry is on record as “++ (compound exhibited 25-50% inhibition at 0.3 μM)”. Still for that read-out and setting: under `O=C(Nc1ncnc2c1CCN(S(=O)(=O)c1ccc(Oc3ccc(C(F)(F)F)cc3)cc1)C2)C12CC3CC(CC(C3)C1)C2` [Compound 510] stands “++++ (compound exhibited 75% or greater inhibition at 0.3 μM)”; under `O=C(c1cc(C(F)(F)F)ccc1Cl)N1CCc2c(ncnc2NC(=O)C23CC4CC(CC(C4)C2)C3)C1` [Compound 443], “++ (compound exhibited 25-50% inhibition at 0.3 μM)”; under `O=C(Nc1ncnc2c1CCN(Cc1cccc(Oc3ccccc3)c1)C2)C12CC3CC(CC(C3)C1)C2` [Compound 568], “+ (compound exhibited 0-25% inhibition at 0.3 μM)”. Consider `CCCCCN1CCc2c(ncnc2NC(=O)C23CC4CC(CC(C4)C2)C3)C1` [Compound 558], for which the IL-1β % inhibition entry is “++ (compound exhibited 25-50% inhibition at 0.3 μM)”. As to `O=C(c1ccccc1F)N1CCc2c(ncnc2NC(=O)C23CC4CC(CC(C4)C2)C3)C1` [Compound 452], the IL-1β % inhibition result is reported as “++ (compound exhibited 25-50% inhibition at 0.3 μM)”. For `O=C(Nc1ncnc2c1CCN(S(=O)(=O)Cc1cc(Cl)cc(Cl)c1)C2)C12CC3CC(CC(C3)C1)C2` [Compound 519], the IL-1β % inhibition result was “+++ (compound exhibited 50-75% inhibition at 0.3 μM)”.

For the molecule `O=C(Nc1ncnc2c1CCN(CC1CCCC1)C2)C12CC3CC(CC(C3)C1)C2` [Compound 619], the IL-1β % inhibition entry is “+ (compound exhibited 0-25% inhibition at 0.3 μM)”.

Consider `O=C(Nc1ncnc2c1CCN(S(=O)(=O)c1ccccc1-c1ccccc1)C2)C12CC3CC(CC(C3)C1)C2` [Compound 527], for which the IL-1β % inhibition result was “+++ (compound exhibited 50-75% inhibition at 0.3 μM)”. As to `O=C(c1ccc2ccccc2c1)N1CCc2c(ncnc2NC(=O)C23CC4CC(CC(C4)C2)C3)C1` [Compound 460], the IL-1β % inhibition entry is on record as “+ (compound exhibited 0-25% inhibition at 0.3 μM)”. Still for that read-out and setting: the same measure for `COc1ccc(C)cc1S(=O)(=O)N1CCc2c(ncnc2NC(=O)C23CC4CC(CC(C4)C2)C3)C1` [Compound 548]: “+ (compound exhibited 0-25% inhibition at 0.3 μM)”. On to `O=C(Nc1ncnc2c1CCN(S(=O)(=O)c1ccc3ccccc3c1)C2)C12CC3CC(CC(C3)C1)C2` [Compound 483], for which the IL-1β % inhibition entry was “+++ (compound exhibited 50-75% inhibition at 0.3 μM)”.
